Experiments:
Type in all cases: in vivo, rat
MPS VI rats [1] = experiment: Trachea measurements and gross morphology, MPS VI rats
Method: Limb and trachea measurements were taken at the end of the study (37 weeks of age). The length of each femur was measured from the microCT images using the Microview software. The greater trochanter was used as the proximal margin of the femur, whereas the extent of the distal condyles was considered the distal margin. Thus, the length of each femur was computed roughly along the vertical axis of the bone. For validation, the physical femora and tibia lengths, as well as the width of the tracheas, was measured with a digital caliper. The mean of the two treatment groups (ERT and combined ERT/CNTO1081) were compared using standard student t test analysis.

MPS VI rats [2] = experiment: MicroCT analysis of bone micro-architecture (trabecular, cortical, robustness), MPS VI rats; details: mid-diaphyseal femur, vs untreated; fell short of statistical significance
Method: Three-dimensional images of the 37-week-old femora from age-matched normal, untreated and treated MPS VI rats were obtained using the eXplore Locus SP PreClinical Specimen microCT system (GE Healthcare; London, Ontario, Canada). Scans were performed at a voxel size of 14.4 μm. The scan protocol consisted of 3600 image acquisitions over a five hour scan (acquisition parameters: 80 kVp, 80 uA, 3 second exposure time [˜690], 0.010″ aluminum beam filter). A calibration phantom containing air, water, and hydroxyapatite (SB3: Gamex RMI, Middleton, Wis., USA) was included in all scans to adjust for the variability in X-ray attenuation inherent to independent scan sessions.
A representative mid-diaphyseal region of each femoral microCT image was isolated for analysis. […] The analysis region was not restricted by measured size to accommodate variances in bone length. […] The MicroView software was employed to quantify morphological traits.
The microCT images were further processed to quantify the tissue mineral density (TMD) of cortical bone within each sample. […] TMD was calculated by converting the gray-scale values of bone voxels from Hounsfield units (HU) to mineral values (mg/cc of HA) through the use of a calibration phantom containing air, water, and HA (Gamex RMI, Middleton, Wis., USA). […]

MPS VI rats [3] = experiment: Synovium / knee joint histology, MPS VI rats; details: MPS VI rats treated 8 months, knee cross sections
Method: (§1) Femora from 37-week-old normal, untreated MPS VI and treated MPS VI rats were fixed, embedded, sectioned, and stained with toluidine blue and H & E. Immunohistochemical studies were performed as well. For immunohistochemistry, sections were fixed with 4% paraformaldehyde/PBS, permeabilized with 0.5% Triton-X-100, blocked, and incubated overnight at 4° C. with primary rabbit polyclonal anti-mouse collagen type IIA1 (rabbit polyclonal […], Santa Cruz Biotechnology) and TNF-α antibody (goat polyclonal sc-1348, Santa Cruz Biotechnology). After several rinses with PBS, visualization was accomplished using a fluorescent secondary antibody, donkey anti-goat IgG-Cy-3 (711-165-152, Jackson Laboratory). Nuclei were stained with 1 mg/ml bis-benzimide Hoechst dye (Sigma-Aldrich) for 10 min, rinsed, and sections were mounted with an anti-bleaching mounting media. Slides were visualized and photographed with a confocal laser-scanning microscope (Carl Zeiss 510 Meta).
FIG. 1A summarizes the serum levels of TNF-α and RANKL at the end of the study. Both inflammatory markers were highly elevated in untreated MPS VI rats as compared to normal animals, and both treatment protocols led to significant reductions. […] The synovial membranes (*) were hyperplastic in untreated MPS VI rats, leading to the formation of synovial villi (SV). […]

ceramide = experiment: Trachea ceramide immunohistochemistry, MPS VI rats; details: 37 weeks of age
Method: Tracheas from 37-week-old normal, untreated MPS VI and treated MPS VI rats were fixed, embedded, sectioned, and prepared as described above. Sections were incubated overnight with primary mouse monoclonal anti-ceramide antibody (MID 15B4, Alexis Corporation) and visualization was accomplished using a fluorescent secondary antibody, donkey anti-goat IgG-Cy-3 (711-165-152, Jackson Laboratory). Slides were visualized and photographed with a confocal laser-scanning microscope (Carl Zeiss 510 Meta).

TNF-α = TNF-α immunostaining of articular cartilage, MPS VI rats; details: MPS VI rats treated 8 months, vs untreated
Method: as §1

recombinant human N-acetylgalactosamine-4-sulfatase [ERT]
tracheal abnormalities (thickened, collapsed tracheas), gross inspection (MPS VI rats [1]; 37 weeks of age): not altered | trachea cross-sectional area (MPS VI rats [1]; 37 weeks, untreated 2.9±0.6, normal 7.5±0.8): 3.6±0.5 mm^2 | cortical area and relative cortical area (MPS VI rats [2]): greater | synovial inflammation and formation of villi (MPS VI rats [3]): did not reduce | ceramide staining in tracheal epithelial cells (ceramide): strong ceramide staining | TNF-α immunostaining in the articular cartilage (TNF-α): modestly reduced

Reference: US9155784B2, “Anti-TNF-α therapy for the mucopolysaccharidoses and other lysosomal disorders” (Icahn School of Medicine at Mount Sinai, priority 2011, dated 2015)
